# Reference: patent US6716428B1, “Antigenic modification of polypeptides” (The Ohio State University Research Foundation, priority 1999, dated 2004)
# Read-outs that look alike come from different tables or passages of the source. Square brackets hold non-standard residues; d marks the D form. Ends that are not written are not given here. Nle = CCCC[C@H](N)C(=O)O
# What was measured:
# HCG = assay: Antibodies bound to HCG raised by conjugated 38-57 loop analogs and reference conjugates (Example XLIV); assay type: in vivo, human; conditions: for antibodies bound to HCG: mean peak binding of the antisera
# Description: (§1) In an effort to obtain improved results over the analogs described in my earlier Example XLIII, further synthetic analogs of the unsubstituted 38-57 amino acid sequence of βHCG were prepared and evaluated in a similar manner as set forth in the prior examples. These analogs were provided with a disulfide bridge linking their 38 Cys and 57 Cys to form a loop and included the amino acid residue Ala (Pro)6 on the N-terminus as described earlier herein.
# (§2) Table 33 illustrates nine analogs of the 38-57 loop peptide of βHCG with a varying number of amino acid substitutions in the positions outside the conceived 43-50 epitope sequence.
# (§3) The antibodies values are expressed herein are as namomoles bound/L unless otherwise stated.
# pituitary HLH = assay: Antibodies bound to pituitary HLH raised by conjugated 38-57 loop analogs and reference conjugates (Example XLIV); assay type: in vivo, human; conditions: mean peak binding of the antisera
# Description: as §1, §2, §3
# [1] = system: rabbit polyclonal antiserum to the 38-57 loop peptide; assay: Competition radioimmunoassay with rabbit polyclonal antiserum to the 38-57 loop peptide; assay type: binding
# Description: In the preceding examples, the studied available smallest peptide highly reactive to H-18 MAB was the 40-52 residue peptide and therefore, it was contemplated that the entire epitope resided within this sequence. By the procedures described in earlier examples for other peptides, peptides representing 50-52, 49-52, 48-52, 47-52, 46-52, 45-52, 44-52, 43-52, 42-52, and 41-52 were prepared and tested for reactivity with H-18 MAB and a rabbit polyclonal antiserum to the 38-57 loop peptide.
# By earlier described procedures for other peptide preparations, peptides 43-45, 43-46, 43-48, 43-49, 43-50, and 43-51 were prepared to define the C-terminal boundary of the H-18 MAB epitope and to determine whether polyclonal antisera to the 38-57 loop reacted to sequences beyond the H-18 boundary. […] This latter immunogenicity could involve N-terminal residues 41 and 42 and the C-terminal residue 51.
# Peptides with amino acid substitutions in the 43-50 sequence were unreactive.
# female baboons [2] = assay: Fertility rates (matings and pregnancies) of immunized female baboons; assay type: in vivo, baboon; conditions: for Fertility Rate (%) / No. Pregnant: female baboons
# female baboons [3] = system: female baboons
# progesterone = conditions: female baboons
# [4] = post-immunization menstrual cycle 1
# [5] = post-immunization menstrual cycle 2
# [6] = post-immunization menstrual cycle 3
# [7] = post-immunization menstrual cycle 4
# [8] = post-immunization menstrual cycle 5
# [9] = pre-immunization menstrual cycle −1
# [10] = pre-immunization menstrual cycle −2
# [11] = pre-immunization menstrual cycle −3
substance,measurement,setting,value
"conjugate including the βHCG 109-145 amino acid sequence: conjugate of the βHCG 109-145 sequence tested in Example XLIV (TCDDPRFQDSSSSKAPPPSLPSPSRLPGPSDTPILPQ; also: conjugated to carrier; UniProt P0DN86 129-165, looked up, fragment)",antibodies bound to HCG,HCG,1240 nanomoles bound/L
same,antibodies bound to pituitary HLH,pituitary HLH,0 nanomoles bound/L
CPT[Nle]DRVLQGVLPAVPQVVC (cysteine pairing not given here) [analog number 2],"HCG antibodies bound, of those using the conjugated unsubstituted 38-57 loop sequence",HCG; in vivo,about 75%
same,antibodies bound to HCG,HCG,420 nanomoles bound/L
same,antibodies bound to pituitary HLH,pituitary HLH,13 nanomoles bound/L
CPTMTRVLQGVLPALPQVVC (cysteine pairing not given here) [Structure (XXVII)],antibodies against the peptide not directed to the 43-50 region,[1],about 5%
diphtheria toxoid,Fertility Rate,"female baboons [2]; Example XXXV, all matings of three mating cycles, CGP 11637, Squalene/Arlacel A",70%
same,Fertility Rate (%),female baboons [2]; mating cycle 1,73.3%
same,No. Pregnant,female baboons [2]; mating cycle 1,11
same,Fertility Rate (%),female baboons [2]; mating cycle 2,75.0%
same,No. Pregnant,female baboons [2]; mating cycle 2,3
same,Fertility Rate (%),female baboons [2]; mating cycle 3,0%
same,No. Pregnant,female baboons [2]; mating cycle 3,0
same,Fertility Rate (%),female baboons [2]; totals of mating cycles 1-3,70.0%
same,No. Pregnant,female baboons [2]; totals of mating cycles 1-3,14
same,pregnancies in total,female baboons [2]; in vivo,14
same,"Cycle Length (days), Mean",female baboons [3]; [4],32.7 days
same,"Cycle Length (days), Mean",female baboons [3]; [5],33.1 days
same,"Cycle Length (days), Mean",female baboons [3]; [6],34.0 days
same,"Cycle Length (days), Mean",female baboons [3]; [7],30.0 days
same,"Cycle Length (days), Mean",female baboons [3]; [8],31.0 days
same,"Cycle Length (days), Mean",female baboons [3]; [9],33.2 days
same,"Cycle Length (days), Mean",female baboons [3]; [10],33.5 days
same,"Cycle Length (days), Mean",female baboons [3]; [11],34.4 days
same,"Luteal phase Progesterone (ng/ml), Mean",progesterone; [4],4.3 ng/mL
same,"Luteal phase Progesterone (ng/ml), Mean",progesterone; [5],6.0 ng/mL
same,"Luteal phase Progesterone (ng/ml), Mean",progesterone; [6],7.0 ng/mL
same,"Luteal phase Progesterone (ng/ml), Mean",progesterone; [7],5.9 ng/mL
same,"Luteal phase Progesterone (ng/ml), Mean",progesterone; [8],6.0 ng/mL
same,"Luteal phase Progesterone (ng/ml), Mean",progesterone; [9],6.0 ng/mL
same,"Luteal phase Progesterone (ng/ml), Mean",progesterone; [10],6.8 ng/mL
same,"Luteal phase Progesterone (ng/ml), Mean",progesterone; [11],6.9 ng/mL
